The source of these data is patent US6342508B1, “N-hydroxy-2-(Alkyl,Aryl or Heteroaryl sulfanyl, sulfinyl or sulfonyl) 3-substituted alkyl, aryl or heteroarylamides as matrix metalloproteinase inhibitors” (American Cyanamid Company, priority 1997, dated 2002).

Test system in the first series: not given
Assay: not given
Details: not given
The melting point is the temperature, or range, at which the solid turns liquid. The molecule `CCCCCCC(Sc1nccn1C)C(=O)NO` (stereo not drawn) [Example 39, 2-(1-methyl-1H-imidazol-2-ylsulfanyl)-octanoic acid hydroxyamide] displayed a melting point of 125 °C. On the same count and under the same terms, next, `COc1ccc(S(=O)(=O)C2(C(=O)NO)CCN(Cc3ccc(Br)cc3)CC2)cc1` [Example 90, 1-(4Bromo-benzyl)-4-(4-methoxy-benzenesulfonyl)-piperidine-4-carboxylic acid hydroxyamide]: 180 °C; `COc1ccc(SC(C)(Cc2ccccc2)C(=O)NO)cc1` (stereo not drawn) [Example 1, N-Hydroxy-2-(4-methoxy-phenylsulfanyl)-2-methyl-3-phenyl-propionamide]: 88 °C; `CCCCC(Cc1cccnc1)(C(=O)NO)S(=O)(=O)c1ccc(OC)cc1` (stereo not drawn) [Example 70, 2-(4-Methoxy-benzenesulfonyl)-2-pyridin-3-ylmethyl-hexanoic acid hydroxyamide]: 70 °C. Still for that read-out and setting: next, `COc1ccc(S(=O)(=O)C2(C(=O)NO)CCN(CCCOc3ccccc3)CC2)cc1` [Example 105, 4-(4-Methoxy-benzenesulfonyl)-1-(3-phenoxy-propyl)-piperidine-4-carboxylic acid hydroxyamide]: 101 °C.

The target of another series is T1, TACE (Homo sapiens, UniProt P78536).
T1 construct: purchased Immunex
T1 sequence (P78536 215-824): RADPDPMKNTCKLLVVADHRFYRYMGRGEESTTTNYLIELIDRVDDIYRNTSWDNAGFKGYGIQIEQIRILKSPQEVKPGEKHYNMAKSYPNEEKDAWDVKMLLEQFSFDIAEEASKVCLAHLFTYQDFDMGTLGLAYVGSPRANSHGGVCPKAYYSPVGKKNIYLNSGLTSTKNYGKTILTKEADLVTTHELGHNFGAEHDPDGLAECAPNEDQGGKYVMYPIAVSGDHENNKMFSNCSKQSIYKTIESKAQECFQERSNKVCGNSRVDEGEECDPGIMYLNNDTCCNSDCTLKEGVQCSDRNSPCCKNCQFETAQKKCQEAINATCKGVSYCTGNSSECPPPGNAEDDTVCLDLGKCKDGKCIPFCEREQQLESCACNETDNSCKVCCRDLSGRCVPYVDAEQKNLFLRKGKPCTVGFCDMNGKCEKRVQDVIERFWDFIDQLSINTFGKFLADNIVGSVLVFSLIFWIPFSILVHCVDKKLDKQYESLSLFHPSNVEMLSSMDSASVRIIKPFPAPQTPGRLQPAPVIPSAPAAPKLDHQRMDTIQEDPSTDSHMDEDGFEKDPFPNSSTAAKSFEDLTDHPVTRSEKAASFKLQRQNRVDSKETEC
Briefly: Procedure for Measuring TACE Inhibition (fluorescent peptidyl substrate). It counts as biochemical. The following applies: 1 mM. On the procedure:
Using 96-well black microtiter plates, each well recieves a solution composed of 10 μL TACE (Immunex, final concentration 1 μg/mL), 70 μL Tris buffer, pH 7.4 containing 10% glycerol (final concentration 10 mM), and 10 μL of test compound solution in DMSO (final concentration, DMSO concentration <1%) and incubated for 10 minutes at room temperature. The reaction is initiated by addition of a fluorescent peptidyl substrate (final concentration 100 μM) to each well and then shaking on a shaker for 5 sec. The reaction is read (excitation 340 nm, emission 420 nm) for 10 min. and the increase in fluorescence over time is plotted as a linear line. The slope of the line is calculated and represents the reaction rate. […] The mean (x±sem) of the control rate is calculated and compared for statistical significance (p<0.05) with drug-treated rates using Dunnett's multiple comparison test.
Turning to “(1-Hydroxycarbamoyl-propane-1-sulfinyl)-acetic acid hydroxy amide [Example 121]”, the “TACE % inhibition at 1 mM” value came out at 6.1%.

For “3-(1-Hydroxycarbamoyl-heptylsulfinyl)-benzoicacid hydroxyamide [Example 188]”, the “TACE % inhibition at 1 mM” value came out at 16.2%. On to `CCCCCCC(Sc1ccc(NS(=O)(=O)CC)cc1)C(=O)NO` (stereo not drawn) [Example 234, Ethanesulfonic acid 4(1-hydroxycarbamoyl-heptylsulfanyl)-hydroxyamide], for which the “TACE % inhibition at 1 mM” value was determined as 18.4%. `CCCCCCC(C(=O)NO)[S+]([O-])c1ccc(NS(=O)(=O)c2cc(Cl)sc2Cl)cc1` (stereo not drawn) [Example 236, 2,5-Dichloro-thiophene-3-sulfonic acid 4-(1-hydroxycarbamoyl-heptylsulfinyl)-hydroxyamide]: the “TACE % inhibition at 1 mM” value came out at 35%. On to `CCCCCCC(Sc1ccc(OCCN2CCNCC2)cc1)C(=O)NO` (stereo not drawn) [Example 201, 2-[4-(2-Piperazine-1-yl-ethoxy)-benzenesulfanyl]-octanoic acid hydroxyamide], for which the “TACE % inhibition at 1 mM” value is on record as 50.9%. Still for that read-out and setting: next, “(1-Hydroxycarbamoyl-propane-1-sulfanyl)-propionic acid hydroxyamide [Example 122]”: 3.1%.

As to “(1-Hydroxycarbamoyl-propane-1-sulfonyl)-acetic acid hydroxyamide [Example 120]”, the “TACE % inhibition at 1 mM” value is 19.9%. Same read-out and setting: the same measure for `CCCCCCC(Sc1ccc(OCCCC)cc1)C(=O)NO` (stereo not drawn) [Example 200, 2-(4-Butoxy-benzenesulfanyl)-octanoic acid hydroxyamide]: 37.9%.

The series is the same for the next values; noted with them: read-out: TACE IC 50.
For the molecule `CCCCCCC(Sc1nccn1C)C(=O)NO` (stereo not drawn) [Example 39, 2-(1-methyl-1H-imidazol-2-ylsulfanyl)-octanoic acid hydroxyamide], the IC50 was 69.4 nM.

`COc1ccc(S(=O)(=O)C(C/C=C(\C)CCC=C(C)C)(Cc2ccc(OCCN3CCOCC3)cc2)C(=O)NO)cc1` (stereo not drawn) [Example 26, (4E)-2-(4-Methoxy-benzenesulfonyl)-5,9 dimethyl-2-(4-(2-morpholin-4-yl-ethoxy)-benzyl]-deca-4,8-dienoic acid hydroxyamide]: the IC50 came to 34.6 nM. The same measure, in the same setting: the same measure for `COc1ccc(S(=O)(=O)C2(C(=O)NO)CCN(Cc3ccc(Br)cc3)CC2)cc1` [Example 90, 1-(4Bromo-benzyl)-4-(4-methoxy-benzenesulfonyl)-piperidine-4-carboxylic acid hydroxyamide]: 71.9 nM. Consider `COc1ccc(S(=O)(=O)C(CC=C(C)C)(Cc2ccc(OCCN3CCOCC3)cc2)C(=O)NO)cc1` (stereo not drawn) [Example 24, 2-(4-Methoxy-benzenesulfonyl)-5-methyl-2-[4-(2-morpholin-4-yl-ethoxy)-benzyl]-hex-4-enoic acid hydroxyamide], for which the IC50 amounted to 47.5 nM.

Still in this series, the particulars now being: solid phase compounds table.
The molecule `CCCCCCC(C(=O)NO)S(=O)(=O)c1ccc(OS(=O)(=O)c2ccccc2[N+](=O)[O-])cc1` (stereo not drawn) [Example 238, 2-Nitro-benzenesulfonic acid 4-(1-hydroxycarbamoyl-heptylsulfonyl)-hydroxyamide] yielded an IC50 of 930 nM.
